According to paper PMC6264549, “Synthesis and Biological Evaluation of 3-Substituted-indolin-2-one Derivatives Containing Chloropyrrole Moieties” (Molecules, 2011):

What was measured:
[1] = system: oral epithelial (KB); experiment: MTT cell growth inhibition assay, KB; format: cell-based; details: Homo sapiens, 48 h, KB cells, two days
Description: (§1) The antitumor activities of 14a-r were evaluated in vitro on four tumor cell lines, including non-small cell lung cancer (A549), oral epithelial (KB), melanoma (K111) and large cell lung cancer cell lines (NCI-H460) by the MTT assay, and the results are summarized in Table 1.
(§2) Non-small cell lung cancer (A549), oral epithelial (KB), large cell lung cancer (NCI-H460) and melanoma cell lines (K111) were cultured in Dulbecco’s modified Eagle medium (GIBCO) containing 10% (v/v) inactivated newborn calf serum (Boren Bio-Pharmaceutical Co., Ltd.: Guangzhou, China), […] L-glutamine (SANGON), […] penicillin, 100 µg/mL streptomycin. Cells were grown in a 5% CO2 incubator at 37 °C.
(§3) The antitumor activities were determined by the MTT assay. Cells (2 × 10^3 cells/well) were seeded in 96-well plates. After incubation overnight, each compound, which was dissolved in dimethylsulfoxide (DMSO) and diluted with phosphate buffer solution (PBS), was added to each well and the cells were cultured for another two days at 37 °C. 20 μL (5 mg/mL) MTT solution was added to per well and the culture continued for another 3–4 h. The medium was removed and 100 μL DMSO was added to dissolve formazan crystals. Absorbance was measured at 492 nm using an ELISA reader (Thermo). The antitumor activities were expressed as IC50.

[2] = system: large cell lung cancer cell lines (NCI-H460); experiment: MTT cell growth inhibition assay, NCI-H460; format: cell-based; details: Homo sapiens, 48 h, NCI-H460 cells, two days, read-out: IC50 ± SD NCI-H460
Description: as §1, §2, §3

[3] = system: melanoma (K111); experiment: MTT cell growth inhibition assay, K111; format: cell-based; details: 48 h, K111 cells, two days, read-out: IC50 ± SD K111
Description: as §1, §2, §3

[4] = sunitinib-treated patients, pivotal phase III metastatic renal cell carcinoma trial; cited from earlier work
[5] = system: non-small cell lung cancer (A549); experiment: MTT cell growth inhibition assay, A549; format: cell-based; details: Homo sapiens, 48 h, A549 cells, two days, read-out: IC50 ± SD A549
Description: as §1, §2, §3

[6] = biological target: VEGFR2 tyrosine kinase (Homo sapiens, UniProt P35968); experiment: VEGFR2 inhibition assay (ELISA); format: biochemical; details: 5.0 µM ATP, Poly (Glu, Tyr)4:1 substrate, read-out: IC50 ± SD VEGFR2
Sequence of VEGFR2 tyrosine kinase (P35968 20-1356): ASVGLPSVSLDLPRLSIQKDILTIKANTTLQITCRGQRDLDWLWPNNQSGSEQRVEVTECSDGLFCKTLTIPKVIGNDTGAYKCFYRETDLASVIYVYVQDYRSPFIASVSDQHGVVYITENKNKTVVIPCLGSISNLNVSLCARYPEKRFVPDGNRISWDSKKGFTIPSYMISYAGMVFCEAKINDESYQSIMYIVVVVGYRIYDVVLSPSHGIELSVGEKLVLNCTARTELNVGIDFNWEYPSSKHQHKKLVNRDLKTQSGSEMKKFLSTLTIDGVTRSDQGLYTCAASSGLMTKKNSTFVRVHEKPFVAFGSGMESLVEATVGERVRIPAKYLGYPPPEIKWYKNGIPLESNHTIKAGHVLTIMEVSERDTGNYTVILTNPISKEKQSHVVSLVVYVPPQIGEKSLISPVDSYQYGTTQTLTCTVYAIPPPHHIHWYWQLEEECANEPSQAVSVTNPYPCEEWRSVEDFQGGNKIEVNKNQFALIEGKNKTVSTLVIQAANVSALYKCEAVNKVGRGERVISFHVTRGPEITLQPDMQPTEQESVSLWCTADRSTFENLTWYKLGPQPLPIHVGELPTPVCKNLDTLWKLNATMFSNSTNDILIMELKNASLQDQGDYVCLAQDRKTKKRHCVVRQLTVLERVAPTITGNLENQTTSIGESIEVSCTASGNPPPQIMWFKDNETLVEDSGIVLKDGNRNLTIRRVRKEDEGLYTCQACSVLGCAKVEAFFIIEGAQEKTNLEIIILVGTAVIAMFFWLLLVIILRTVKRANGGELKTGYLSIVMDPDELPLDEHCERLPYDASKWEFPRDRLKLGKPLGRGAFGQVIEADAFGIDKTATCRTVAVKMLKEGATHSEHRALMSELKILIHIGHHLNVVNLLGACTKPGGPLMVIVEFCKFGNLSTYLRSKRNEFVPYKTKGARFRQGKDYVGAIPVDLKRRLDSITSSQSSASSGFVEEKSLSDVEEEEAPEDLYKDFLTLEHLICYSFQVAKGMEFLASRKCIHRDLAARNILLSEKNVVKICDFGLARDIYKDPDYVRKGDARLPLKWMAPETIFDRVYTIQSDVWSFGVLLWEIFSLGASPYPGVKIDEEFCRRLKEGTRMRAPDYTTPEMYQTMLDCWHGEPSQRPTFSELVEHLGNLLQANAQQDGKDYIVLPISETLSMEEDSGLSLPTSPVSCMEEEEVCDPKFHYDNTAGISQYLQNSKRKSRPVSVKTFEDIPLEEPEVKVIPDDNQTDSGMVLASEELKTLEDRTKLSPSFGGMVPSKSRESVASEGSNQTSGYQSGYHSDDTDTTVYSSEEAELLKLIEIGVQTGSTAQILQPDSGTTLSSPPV
Description: Seven compounds in the 14a–r series with low IC50 values on the tumor cell lines were evaluated for their inhibition of VEGFR2 using an enzyme-linked immunosorbent assay (ELISA), and the data are summarized in Table 2.
The VEGFR2 inhibition assay was performed by enzyme-linked immunosorbent assay (ELISA) in 96-well plates pre-coated with 2.5 µg/well Poly (Glu, Tyr)4:1 as a substrate. Each well was treated with 90 µL of 5.0 µM ATP (Amresco) solution and 10 µL of one of the seven compounds at varying concentrations, which were diluted in reaction buffer (50 mM HEPES pH 7.4, 20 mM MgCl2, 0.1 mM Na3VO4, 1 mM DTT). […] The reaction was initiated by adding 1 µL/well of VEGFR2 tyrosine kinase. After incubation for 1 h at 37 °C, the plates were washed three times with phosphate buffered saline containing 0.1% Tween-20 (T-PBS). Next, anti-phosphotyrosine (PY99; 1:1,000 dilution, 100 μL/well) antibody was added. After 1 h incubation at room temperature, the plates were washed three times, and goat anti-mouse IgG horseradish peroxidase (100 μL/well of 1:2,000 dilution) diluted in T-PBS was added. The plates were reincubated at room temperature for 1 h, and washed as before. Finally, color development solution (0.03% H2O2 and 2 mg/mL o-phenylenediamine in 0.1 M citrate buffer, pH 5.5, 100 µL/well) was added and the plates were incubated at room temperature until color emerged. The reaction was terminated by the addition of 2 M H2SO4 (50 µL/well), and A492 was measured using a tunable wavelength microplate reader (Molecular Devices SPECTRAMAX190). The inhibition rate was calculated using the equation: [1 − (A492/A492 control)] × 100%.

[7] = biological target: hERG potassium currents (Homo sapiens, UniProt Q12809); experiment: Inhibition of hERG potassium currents in HEK239 cells (cardiotoxicity)
Sequence of hERG potassium currents (Q12809 whole entry): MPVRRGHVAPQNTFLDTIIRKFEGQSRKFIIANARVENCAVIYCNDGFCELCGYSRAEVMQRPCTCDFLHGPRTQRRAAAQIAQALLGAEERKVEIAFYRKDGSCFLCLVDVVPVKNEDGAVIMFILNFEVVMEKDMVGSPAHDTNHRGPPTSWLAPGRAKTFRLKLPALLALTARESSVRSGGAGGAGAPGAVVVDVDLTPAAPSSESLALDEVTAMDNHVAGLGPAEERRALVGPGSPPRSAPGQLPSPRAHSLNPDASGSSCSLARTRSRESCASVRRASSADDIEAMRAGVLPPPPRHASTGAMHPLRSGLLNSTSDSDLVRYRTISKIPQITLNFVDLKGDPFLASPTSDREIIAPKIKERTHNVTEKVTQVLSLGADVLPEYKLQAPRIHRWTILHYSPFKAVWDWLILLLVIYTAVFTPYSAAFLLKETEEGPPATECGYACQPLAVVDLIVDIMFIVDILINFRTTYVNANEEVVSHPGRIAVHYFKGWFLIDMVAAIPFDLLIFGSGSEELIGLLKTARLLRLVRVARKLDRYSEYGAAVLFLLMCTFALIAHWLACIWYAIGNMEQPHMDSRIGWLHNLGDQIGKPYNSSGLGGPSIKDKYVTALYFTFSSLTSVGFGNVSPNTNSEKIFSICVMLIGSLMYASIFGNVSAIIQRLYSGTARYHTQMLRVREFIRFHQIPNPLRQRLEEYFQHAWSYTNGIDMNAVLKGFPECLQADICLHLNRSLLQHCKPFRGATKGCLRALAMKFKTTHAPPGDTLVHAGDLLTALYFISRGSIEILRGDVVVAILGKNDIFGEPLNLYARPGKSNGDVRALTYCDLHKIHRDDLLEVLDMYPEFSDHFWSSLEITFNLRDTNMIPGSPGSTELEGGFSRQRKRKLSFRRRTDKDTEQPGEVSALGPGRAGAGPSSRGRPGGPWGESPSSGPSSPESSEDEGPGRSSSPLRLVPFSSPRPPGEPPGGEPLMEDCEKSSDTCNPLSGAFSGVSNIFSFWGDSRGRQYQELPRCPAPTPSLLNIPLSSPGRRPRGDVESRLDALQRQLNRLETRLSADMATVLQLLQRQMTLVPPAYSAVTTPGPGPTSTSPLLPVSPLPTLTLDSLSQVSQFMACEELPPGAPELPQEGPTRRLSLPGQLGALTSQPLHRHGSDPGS

Row | IC50 [1] | IC50 [2] | IC50 [3] | IC50 [5] | melting point | IC50 [6] | Compound | patients who experienced a decline in LVEF to below normal [4] | IC50 [7]
1 | 2600 ± 180 nM | 4790 ± 620 nM | 3830 ± 430 nM | 2930 ± 250 nM |  |  | CCN(CC)CCNC(=O)c1c(C)[nH]c(/C=C2\C(=O)Nc3ccc(F)cc32)c1C [Sunitinib, sunitinib, reference compound] | 21% | 
2 | 670 ± 80 nM | 1410 ± 90 nM | 1190 ± 210 nM | 1030 ± 90 nM | 211 to 211.8 °C | 5 ± 1.1 nM | CCNCCNC(=O)c1c(C)[nH]c(/C=C2\C(=O)Nc3ccc(F)cc32)c1Cl [Compound 14g, (Z)-4-Chloro-N-(2-(ethylamino)ethyl)-5-((5-fluoro-2-oxoindolin-3-ylidene)methyl)-2-methyl-1H-pyrrole-3-carboxamide] |  | 430 nM
